System: Plasmodium falciparum
Test: MMV: IC50 determined against P. falciparum Dd2-luc strain using a Malaria Sybr Green I Fluorescence assay. Starting conditions were 1% trophozoite synchronised parasites at 2% haematocrit. Fluorescence detection completed after 48hr incubation at 37 degrees C under 1% O2, 3% CO2 and balance N2.
Type: functional, organism-based
Conditions: Dd2, 48 h

Compound	IC50 [µM]
CCN1CCCC1CNc1[nH]cnc2c3cc(Cl)ccc3nc1-2 (stereo unspecified)	1.45
CCOc1cc(CNC(C)C(O)c2ccccc2)cc(Cl)c1OCC (stereo unspecified)	1.91
Nc1nc(Nc2cccc(F)c2)nc2ccccc12	2.37
CCOc1c(Cl)cc(CNCC(O)c2ccccc2)cc1OC (stereo unspecified)	1.3
COc1ccc2nc(C)cc(Nc3ccccc3O)c2c1	1.1
Cc1cc(C)cc(Nc2cc(C)nc3nc(C(F)(F)F)nn23)c1	0.137
CCn1nc(-c2ccc(C(=O)OC)cc2)nc2c(=O)n(C)c(=O)nc1-2	0.691
CCOc1ccccc1CN1CCc2nc3cc(C(C)(C)C)nn3c(O)c2C1	1.23
O=C(NC1CCN(Cc2ccccc2)CC1)c1cc2nc(-c3ccc(Cl)s3)cc(C(F)(F)F)n2n1	5.17
Cc1sc(NC(=O)c2ccco2)c(C(c2cccnc2)N2CCC(Cc3ccccc3)CC2)c1C (stereo unspecified)	1.33
Cc1cc(N2CCCC2)nc(Nc2ccc(NC(=O)CCc3ccccc3)cc2)n1	1.26
O=C(NCC(c1ccsc1)N1CCCCCC1)c1ccc(C(F)(F)F)cc1 (stereo unspecified)	0.467
Cc1cc(NC(=O)c2cccc(C(F)(F)F)c2)n(-c2nc(-c3ccc4c(c3)OCO4)cs2)n1	2.18
O=C(CCc1ccccc1)c1ccccc1OCC(O)CN1CCCCC1 (stereo unspecified)	1.09
Cc1ccc(Nc2nc(-c3ccccn3)cs2)cc1	0.479
CCCCCC(=O)N1c2ccccc2N=C2CC(c3ccc(OC)c(OC)c3)CC(O)=C2C1c1ccc(C(F)(F)F)cc1 (stereo unspecified)	0.179
Cc1cc(Nc2ccc3ccccc3c2)n2ncnc2n1	0.156
COc1ccc(-n2ccnc2SCC(=O)Nc2cc(C)ccc2C)c(OC)c1	0.351
CCN1CCN(Cc2ccc(NC(=O)c3cc4ccc5cccnc5c4[nH]3)cc2)CC1	0.665
COc1cccc(Nc2nc(NCCO)c3ccccc3n2)c1	0.885
COc1ccc(C(=O)Nc2ccc3nc(N4CCCCC4)cc(C)c3c2)cc1OC	0.614
COCCNCC(O)Cn1c2ccc(Cl)cc2c2cc(Cl)ccc21 (stereo unspecified)	0.652
COc1ccc(N2CCN(C(CNC(=O)C3CCCCC3)c3ccc4c(c3)OCO4)CC2)cc1 (stereo unspecified)	0.569

Compound	IC50 [µM]
COc1ccc2nc(C)cc(Nc3ccc(Cl)cc3)c2c1	1.18
O=C(NC1CCN(Cc2ccccc2)CC1)c1cc(-c2ccncc2)nc2ccc(Cl)cc12	1.48
COc1cccc(Nc2nc(N)c3ccccc3n2)c1	3.11
CCC(O)c1ccc(Br)cc1NC(=O)c1cccc(Cl)c1 (stereo unspecified)	0.701
COc1ccc2nc(C)cc(Nc3cccc(O)c3)c2c1	0.941
CN(C)CCCNCc1ccc(-c2ccc(F)c(Cl)c2)o1	1.16
Cn1c(=O)c2cc(C(=O)NCCCN3CCCCCC3)sc2c2ccccc21	0.366
Cc1[nH]c(-c2ccc(F)cc2)cc1C(=O)NC1CCN(Cc2ccccc2)CC1	1.67
Cc1sc2ncnc(Sc3nc4ccccc4[nH]3)c2c1C	0.844
CCOc1cc2c(cc1OCC)C(c1cc(OC)c(O)cc1Cl)NCC2 (stereo unspecified)	0.12
CC1CN(C(=O)c2sc3ccccc3c2Cl)CC(C)O1 (stereo unspecified)	0.104
CCC(=O)Nc1nnc(Cc2ccc(OC)c(OC)c2)s1	0.705
Oc1ccccc1CN1CCN(C(c2ccccc2)c2ccccc2)CC1	0.959
c1ccc2c(NCCCCCCNc3c4c(nc5ccccc35)CCCC4)c3c(nc2c1)CCCC3	0.545
CCC1(C)CC(CCNCc2ccccc2O)(c2ccc(C)cc2)CCO1 (stereo unspecified)	0.141
Brc1ccc(Nc2nc3ccccc3nc2Nc2ccc(Br)cc2)cc1	1.51
OC(CNC1CCCCC1)Cn1c2ccccc2c2ccccc21 (stereo unspecified)	0.278
O=C(NCCCN1CCC(N2CCCCC2)CC1)C1=Cc2cc(Br)ccc2OC1	0.965
O=C(NC1CCN(Cc2ccccc2)CC1)c1cc(C(=O)NC2CCN(Cc3ccccc3)CC2)cc(C(=O)NC2CCN(Cc3ccccc3)CC2)c1	0.264
CCN1CCN(c2cc(C)c3cc(NC(=O)c4ccc(OC)c(OC)c4)ccc3n2)CC1	1.85
Fc1ccc2[nH]c3c(NCCCN4CCOCC4)ncnc3c2c1	0.335
CC(=O)Nc1nnc(SCc2c(C)cc(C(C)(C)C)cc2C)s1	0.794
Cc1ccc(Cl)cc1N1CCN(CCCNC(=O)C2CCN(c3nc4ccccc4[nH]3)CC2)CC1	1.3

Compound	IC50 [µM]
O=C(Nc1ccc(CN2CCOCC2)cc1)c1ccc(-c2cc(Cl)ccc2Cl)o1	1.74
Cc1ccc(CSCc2ccc(C(=O)NC3CC3)o2)cc1	0.55
Cc1cc(Nc2ccc(OCc3ccccc3)cc2)nc2cc(O)ccc12	0.296
CN1CCN(c2c3c(c(C#N)c4nc5ccccc5n24)CCC3)CC1	1.49
COc1cc(-c2nc(-c3ccc(Sc4ccccc4)cc3)c(-c3ccccc3)[nH]2)cc(OC)c1O	0.735
CCOc1ccc(C2N(C)c3ccccc3N2C)cc1	0.904
COc1ccc2c(c1)OC(O)(C(F)(F)C(F)(F)F)CC2=O (stereo unspecified)	0.369
Cc1cccc(Nc2nc(N)c3ccccc3n2)c1	3.5
COc1cccc(C(=O)Nc2ccc(-c3nc4ccccc4[nH]3)cc2)c1	0.832
CCn1c(CN2CCN(Cc3ccccc3)CC2)nc2cc(NC(=O)c3cccs3)ccc21	0.468
O=C(NC1CCN(Cc2ccccc2)CC1)c1cc(-c2cccnc2)nc2ccc(Cl)cc12	1.23
CCN(Cc1ccccc1)C1CCN(Cc2cc(Br)ccc2O)CC1	0.603
CC(=O)NCCc1nc2ccccc2n1Cc1ccc(C(C)C)cc1	1.49
COc1nc(Nc2ccc(C(C)C)cc2)nc(OC)n1	0.365
Nc1ccc(-c2nc3cc(Oc4ccc(Oc5ccc6[nH]c(-c7ccc(N)cc7)nc6c5)cc4)ccc3[nH]2)cc1	0.315
Cc1ccc(C)c(Cn2c(N3CCC(C(=O)NCc4cccs4)CC3)nc3ccccc32)c1	1.16
CCOc1cccc(C(=O)Nc2ccc(-c3nc4ccccc4[nH]3)cc2)c1	1.21
Cc1cc(N(C)C)nc(Nc2ccc(NC(=O)Nc3ccccc3)cc2)n1	0.973
Clc1cc(Br)ccc1-c1ccc(CNCC2CCNCC2)o1	0.596
COc1ccc(C(=O)C(CCC(CNC(C)(C)C)C(=O)c2ccc(OC)cc2)CNC(C)(C)C)cc1 (stereo unspecified)	1.6
Cc1c(C)n(Cc2ccc(F)cc2)c2ccc(C(=O)NCc3ccco3)cc12	0.0827
COc1ccc(C2C(C(=O)Nc3cccc(OC)c3)c3ccccc3C(=O)N2C2CCCCC2)cc1 (stereo unspecified)	2.34
CCN(CC)c1ccc(NC(=O)c2cccs2)cc1	0.514

Compound	IC50 [µM]
CCOc1ccccc1NC(=O)CN1CCN(C(=O)c2ccco2)CC1	2.9
COc1ccc(-c2nonc2NC(=O)c2cccc(Cl)c2)cc1OC	1.33
Cc1cc(NC(=O)c2ccc(-c3ccccc3)cc2)no1	0.775
COc1cccc(-c2nn(C)c3sc(C(=O)NCCN4CCN(c5ccccc5F)CC4)cc23)c1	1.91
Oc1ccccc1CNCC12CC3CC(CC(C3)C1)C2	0.283
CNCCCNc1ccnc2cc(Cl)ccc12	0.437
COc1cc(-c2nc(-c3ccccc3)c(-c3ccccc3)[nH]2)cc(OC)c1O	1.54
COc1ccccc1CNC(=O)CCn1c(=O)[nH]c2ccsc2c1=O	0.977
O=C(Nc1ccc(N2CCN(Cc3ccccc3)CC2)cc1)c1cccs1	0.742
Cc1ccc(-c2nc3ccccc3o2)cc1NCc1cc(Cc2ccccc2)ccc1O	1.7
Cc1ccc(Nc2nc(N)c3ccccc3n2)cc1Cl	1.1
O=C(Nc1ccc(N2CCCCC2)c(Cl)c1)c1ccc(Br)o1	0.559
Cc1cc(C)c2nc(N3CCC(C(=O)NCCCN4CCC(N5CCCCC5)CC4)CC3)sc2c1	1.28
Cc1ccc(Cn2c(N3CCC(C(=O)NCc4cccs4)CC3)nc3ccccc32)cc1	0.826
CC1CCN(Cc2ccc(NC(=O)c3cc4ccc5cccnc5c4[nH]3)cc2)CC1	0.242
COc1cc(SC)ccc1C(=O)N1CCCC(C)C1 (stereo unspecified)	3.95
CC(C)(C)c1ccc(C(=O)Nc2nc3ccccc3s2)cc1	4.15
COc1cc(CNCCc2ccc(Cl)cc2)cc(OC)c1O	1.87
O=c1nc(C=Cc2ccc(Cl)cc2)oc2ccccc12	1.19
O=C(NCc1ccco1)C1CCN(S(=O)(=O)c2ccc(Br)cc2)CC1	0.901
CCOc1ccc(Nc2ccnc3cc(Cl)ccc23)cc1	0.768
Cc1cc(Nc2ccc(Cl)cc2)n2nc(C(F)(F)F)nc2n1	0.302
COc1ccc(OC)c(C2C3=C(CC(C)(C)CC3=O)N(c3ccc(Cl)c(Cl)c3)C3=C2C(=O)CC(C)(C)C3)c1	2.98

Compound	IC50 [µM]
Cc1cccc(N2C(=O)C3C(C2=O)C2(c4ccccc4)C(=O)C3(c3ccccc3)C(c3ccc4c(c3)OCO4)=C2c2ccc3c(c2)OCO3)c1 (stereo unspecified)	1.7
COc1cc2c(cc1OC)C1=NNC(=O)C1=NC(C)(C)C2	0.733
COc1ccc(CCNC(=O)c2cc(S(=O)(=O)N3CC(C)CC(C)C3)ccc2Sc2ccc(F)cc2)cc1OC (stereo unspecified)	1.33
Cc1ccc(F)cc1NC(=O)c1cc(Cl)ccc1Nc1ccccc1	0.558
Oc1c2c(nc3cc(-c4ccccc4)nn13)CCCC2	1.56
Clc1ccc2c(N3CCCC3)ccnc2c1	1.29
COc1cc2c3cc1Oc1c(OC)c(OC)cc4c1C(Cc1ccc(O)c(c1)Oc1ccc(cc1)CC3N(C)CC2)N(C)CC4 (stereo unspecified)	0.692
CCOC(=O)C1CCN(C(=O)CN2C(=O)c3ccccc3C2c2c[nH]c3ccccc23)CC1 (stereo unspecified)	0.512
Cc1ccc(C)c(-c2csc(Nc3ccc(C)c(C)c3)n2)c1	1.05
CCOc1ccc(CCNC(=O)c2cccs2)cc1OCC	2.72
CN(C)c1ccc(N=Cc2ccc(N3CCOCC3)cc2)cc1	0.345
CCCCOc1ccc(C(=O)Nc2cc(C)on2)cc1	0.783
COc1ccccc1N1C(=N)SC(=Cc2ccc(OCc3ccccc3F)cc2)C1=O	0.809
CCc1ccc(Nc2cc(C)nc3nc(C)nn23)cc1	0.691
CCN(CC)S(=O)(=O)c1ccc(-c2csc(Nc3ccc(C)c(C)c3)n2)cc1	0.933
CCCn1c(=N)c(C(=O)NC2CCCCC2)cc2c(=O)n3cccc(C)c3nc21	1.64
CCN1CCN(c2c(C(=O)c3ccccc3)cnc3cc(OC)c(OC)cc23)CC1	3.34
CC(C)(C)c1ccc(C2CC3=Nc4ccccc4N(C(=O)c4ccccc4Cl)C(c4ccc(F)cc4)C3=C(O)C2)cc1 (stereo unspecified)	1.99
CCCCN(CCCC)S(=O)(=O)c1ccc(NC(=O)c2ccco2)cc1	1.16

Source: ChEMBL document CHEMBL3392922, “MMV box screening in the Dd2 P. falciparum strain”
